Entries after “also recorded” stand apart in the source; their conditions may differ. Counter-ions that a name gives are not always drawn.
Assay: Analysis of monomer degradation in deuterated water by NMR (free phenylalanine)
Type: physicochemical
Settings: deuterated water at pH 4, 7 or 11, room temperature
Experimental: Monomers of formula II were evaluated for degradation in water at basic, neutral, and acidic pH conditions.
NMR indicated an increasing presence of free phenylalanine, a degradation byproduct, in solution over time (FIG. 1). […] This is consistent with hydrolysis of the ester bond in the Phe-TEG monomer.
Monomers were placed in deuterated water (adjusted to pH 4, 7, or 11 with DCl or NaOD) in an NMR tube and incubated at room temperature. NMR was used to detect the presence of free phenylalanine, a degradation byproduct, in the aqueous phase (see FIG. 1).

For `NC(Cc1ccccc1)C(=O)OCCOCCOCCOCCOC(=O)C(N)Cc1ccccc1` (stereo not shown) [Phe-TEG, di-p-toluenesulfonic salt of bis-(phenylalanine)-tetraethylene glycol diester], the “degradation of monomer in water (free phenylalanine in solution over time by NMR)” value was “showed evidence of degradation; also recorded: larger under basic conditions than neutral or acidic”.

From US9375519B2, “Bioerodable poly(etheresteramides) and medical article uses” (SurModics, Inc., priority 2012, dated 2016)
